Key:
Assay in all cases: relative viability (nuclei count vs DMSO), 5 days (fraction); higher = more cells survive
[1] = compound: CC(O)(CS(=O)(=O)c1ccc(F)cc1)C(=O)Nc1ccc(C#N)c(C(F)(F)F)c1 [Bicalutamide] + CC1(C)CCC(c2ccc(Cl)cc2)=C(CN2CCN(c3ccc(C(=O)NS(=O)(=O)c4ccc(N[C@H](CCN5CCOCC5)CSc5ccccc5)c(S(=O)(=O)C(F)(F)F)c4)cc3)CC2)C1 [Navitoclax] (partner 0.5 µM)
Summary of the method: (§1)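 A single step with final 0.05% Triton X-100, 1% formaldehyde and 1 ug/ml Hoechst fixed the cells and stained nuclei 5 days after treatment. Lung cancer cell lines in 1536-well plates had been treated by pin tool the day after seeding with one drug alone or a fixed anchor-drug dose plus five library-drug doses (not always all listed) in √10 steps, and nuclei were counted on 4× images. Relative viability is the ratio of nuclei in treated wells to nuclei in vehicle wells, taken as the median of duplicate plates.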

[2] = compound: CC(O)(CS(=O)(=O)c1ccc(F)cc1)C(=O)Nc1ccc(C#N)c(C(F)(F)F)c1 [Bicalutamide] + C[C@@H](Oc1cc(-c2cnn(C3CCNCC3)c2)cnc1N)c1c(Cl)ccc(F)c1Cl [Crizotinib] (partner 1 µM)
Summary of the method: as §1

[3] = compound: C(C(=O)C(=O)O)Br [Bromopyruvate] + Cc1cc(Nc2cc(N3CCN(C)CC3)nc(Sc3ccc(NC(=O)C4CC4)cc3)n2)n[nH]1 [Tozasertib] (partner 0.1 µM)
Summary of the method: as §1

[4] = compound: CC(O)(CS(=O)(=O)c1ccc(F)cc1)C(=O)Nc1ccc(C#N)c(C(F)(F)F)c1 [Bicalutamide] + Nc1nc2[nH]cc(CCc3ccc(C(=O)N[C@@H](CCC(=O)O)C(=O)O)cc3)c2c(=O)[nH]1 [Pemetrexed] (partner 0.2 µM)
Summary of the method: as §1

Cell Line | relative viability ([1]; first compound 0.08 µM) | relative viability ([1]; first compound 0.253 µM) | relative viability ([1]; first compound 0.8 µM) | relative viability ([1]; first compound 2.53 µM) | relative viability ([2]; first compound 0.08 µM) | relative viability ([2]; first compound 0.253 µM) | relative viability ([2]; first compound 0.8 µM) | relative viability ([2]; first compound 2.53 µM) | relative viability ([3]; first compound 1 µM) | relative viability ([3]; first compound 3.162 µM) | relative viability ([3]; first compound 10 µM) | relative viability ([3]; first compound 31.62 µM) | relative viability ([3]; first compound 100 µM) | relative viability ([4]; first compound 0.08 µM) | relative viability ([4]; first compound 0.253 µM) | relative viability ([4]; first compound 0.8 µM) | relative viability ([4]; first compound 2.53 µM)
EBC-1 | 0.477 | 0.491 | 0.372 | 0.296 | 0.166 | 0.185 | 0.186 | 0.185 | – | – | – | – | – | – | – | – | –
NCI-H1299 | 1.02 | 1.04 | 1.03 | 1.04 | 0.969 | 0.93 | 0.957 | 0.911 | – | – | – | – | – | – | – | – | –
NCI-H522 | – | – | – | – | – | – | – | – | 0.616 | 0.549 | 0.547 | 0.485 | 0.391 | 0.923 | 0.854 | 1.22 | 0.979
IA-LM | 0.945 | 0.876 | 0.99 | 0.751 | 1.14 | 0.819 | 0.88 | 1.02 | – | – | – | – | – | – | – | – | –
NCI-H650 | – | – | – | – | 0.725 | 0.645 | 0.932 | 0.438 | 0.656 | 0.756 | 0.804 | 0.714 | 0.698 | 0.88 | 0.932 | 0.994 | 0.992
NCI-H661 | – | – | – | – | 1.14 | – | 0.881 | 0.989 | 0.35 | 0.361 | 0.335 | 0.348 | 0.362 | 0.939 | 0.965 | 0.942 | 0.896
NCI-H727 | 0.457 | 0.415 | 0.405 | 0.373 | 0.928 | 0.85 | 0.936 | 0.781 | 0.593 | 0.745 | 0.644 | 0.591 | 0.535 | – | – | – | –
NCI-H1793 | 0.516 | 0.353 | 0.479 | 0.512 | – | – | – | – | 0.371 | 0.421 | 0.36 | 0.391 | 0.204 | 0.914 | – | 1.07 | 0.907

From the supplement of paper PMC10307832
